In ChEMBL document CHEMBL5226290, “Rational design of SphK inhibitors using crystal structures aided by computer” (Eur J Med Chem, 2021) one finds Ki and IC50 data, which are given here for twelve molecules.

Assay [1] addresses T1, Sphingosine kinase 2 (Homo sapiens, UniProt Q9NRA0).
T1 sequence (Q9NRA0 whole entry): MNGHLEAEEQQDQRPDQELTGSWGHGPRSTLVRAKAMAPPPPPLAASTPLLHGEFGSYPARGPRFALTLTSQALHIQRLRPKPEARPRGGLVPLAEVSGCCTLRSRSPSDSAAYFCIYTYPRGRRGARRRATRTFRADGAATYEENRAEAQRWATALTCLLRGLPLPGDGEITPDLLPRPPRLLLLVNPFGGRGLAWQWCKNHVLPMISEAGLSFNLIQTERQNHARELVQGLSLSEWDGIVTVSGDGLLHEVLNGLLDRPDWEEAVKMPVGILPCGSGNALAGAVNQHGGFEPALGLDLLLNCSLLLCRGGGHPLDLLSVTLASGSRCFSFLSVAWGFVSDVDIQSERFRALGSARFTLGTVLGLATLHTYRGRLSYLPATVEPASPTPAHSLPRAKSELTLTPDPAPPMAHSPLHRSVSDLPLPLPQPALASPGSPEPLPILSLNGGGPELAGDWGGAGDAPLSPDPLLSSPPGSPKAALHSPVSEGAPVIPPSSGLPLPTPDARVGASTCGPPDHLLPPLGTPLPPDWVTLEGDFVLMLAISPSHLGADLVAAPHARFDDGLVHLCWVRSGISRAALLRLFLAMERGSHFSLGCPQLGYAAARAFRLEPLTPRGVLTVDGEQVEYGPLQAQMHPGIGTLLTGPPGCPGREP
Put plainly: Inhibition of SphK2 (unknown origin) assessed as inhibition constant.

Assay [2] concerns the target T2, Sphingosine kinase 1 (Homo sapiens, UniProt Q9NYA1). Put plainly: Inhibition of SphK1 (unknown origin) assessed as inhibition constant.
The target of assay [3] is T2, Sphingosine kinase 1. Put plainly: Inhibition of recombinant GST-tagged SphK1 (unknown origin) (1 to 384 residues) expressed in baculovirus using sphingosine as substrate incubated for 1 hr in presence of ATP by electrophoretic mobility shift assay.
Assay [4] concerns the target T1, Sphingosine kinase 2. The assay is described as follows: Inhibition of recombinant GST-tagged SphK2 (unknown origin) (1 to 618 residues) expressed in baculovirus using sphingosine as substrate incubated for 1 hr in presence of ATP by electrophoretic mobility shift assay.
The target of assay [5] is T1, Sphingosine kinase 2. The assay is described as follows: Inhibition of SphK2 (unknown origin).
Assay [6] addresses T2, Sphingosine kinase 1. Put plainly: Inhibition of SphK1 (unknown origin).
Assay [7] concerns the target T2, Sphingosine kinase 1. The assay is described as follows: Inhibition of SphK1 (unknown origin) using ATP as substrate preincubated for 40 mins followed by substrate addition and measured after 5 mins by spectrophotometric analysis.
The target of assay [8] is T2, Sphingosine kinase 1. The assay is described as follows: Inhibition of recombinant SphK1 (unknown origin) using NBD-sphingosine as substrate in presence of ATP by fluorescence plate reader analysis.
The target of assay [9] is T1, Sphingosine kinase 2. The assay is described as follows: Inhibition of recombinant SphK2 (unknown origin) using NBD-sphingosine as substrate in presence of ATP by fluorescence plate reader analysis.
Assay [10] concerns the target T1, Sphingosine kinase 2. Put plainly: Inhibition of SphK2 (unknown origin) using ATP as substrate preincubated for 40 mins followed by substrate addition and measured after 5 mins by spectrophotometric analysis.
Assay [11] addresses Sphingosine kinase 1 (Mus musculus, UniProt Q8CI15). Put plainly: Inhibition of recombinant mouse SphK1 expressed in baculovirus infected Sf9 cells using D-erythro-sphingosine and [gamma-32P]ATP as substrate incubated for 30 mins by liquid scintillation counting analysis.
For assay [12], the target named is T3, Sphingosine kinase 2 (Mus musculus, UniProt Q9JIA7).
T3 sequence (Q9JIA7 whole entry): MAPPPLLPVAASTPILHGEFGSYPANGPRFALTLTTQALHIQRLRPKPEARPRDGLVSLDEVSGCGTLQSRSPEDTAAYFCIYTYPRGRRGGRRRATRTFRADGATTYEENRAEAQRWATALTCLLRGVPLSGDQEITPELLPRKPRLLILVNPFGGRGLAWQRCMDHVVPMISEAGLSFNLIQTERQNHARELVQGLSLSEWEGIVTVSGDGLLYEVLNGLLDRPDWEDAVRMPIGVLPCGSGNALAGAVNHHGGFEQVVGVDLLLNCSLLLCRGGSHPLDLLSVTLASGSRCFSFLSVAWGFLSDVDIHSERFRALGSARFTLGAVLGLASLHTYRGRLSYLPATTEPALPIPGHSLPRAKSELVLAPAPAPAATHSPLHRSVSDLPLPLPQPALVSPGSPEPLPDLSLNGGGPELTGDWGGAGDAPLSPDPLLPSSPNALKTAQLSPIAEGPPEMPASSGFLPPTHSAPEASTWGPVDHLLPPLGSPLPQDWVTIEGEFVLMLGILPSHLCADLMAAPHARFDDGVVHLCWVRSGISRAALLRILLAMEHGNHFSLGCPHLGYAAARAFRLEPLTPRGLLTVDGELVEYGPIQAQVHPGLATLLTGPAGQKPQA
Put plainly: Inhibition of recombinant mouse SphK2 expressed in baculovirus infected Sf9 cells using D-erythro-sphingosine and [gamma-32P]ATP as substrate incubated for 30 mins by liquid scintillation counting analysis.

By Ki is commonly meant the dissociation constant of the complex between target and ligand, obtained from inhibition or displacement. As a reminder, the IC50 is the midpoint of a concentration-inhibition curve.

T2 sequence (Q9NYA1 whole entry, the tested form may be a part): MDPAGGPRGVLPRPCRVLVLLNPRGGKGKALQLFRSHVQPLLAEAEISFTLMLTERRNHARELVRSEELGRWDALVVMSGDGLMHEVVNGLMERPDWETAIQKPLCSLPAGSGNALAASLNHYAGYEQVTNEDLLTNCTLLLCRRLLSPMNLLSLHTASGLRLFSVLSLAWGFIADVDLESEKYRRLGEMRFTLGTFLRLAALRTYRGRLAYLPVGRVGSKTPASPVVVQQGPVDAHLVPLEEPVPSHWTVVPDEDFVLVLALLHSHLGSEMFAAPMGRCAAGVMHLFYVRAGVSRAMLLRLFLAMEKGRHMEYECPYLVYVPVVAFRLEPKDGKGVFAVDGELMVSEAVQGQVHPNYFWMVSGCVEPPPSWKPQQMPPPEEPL
Sequence of Sphingosine kinase 1 (Mus musculus, UniProt Q8CI15) (Q8CI15 whole entry): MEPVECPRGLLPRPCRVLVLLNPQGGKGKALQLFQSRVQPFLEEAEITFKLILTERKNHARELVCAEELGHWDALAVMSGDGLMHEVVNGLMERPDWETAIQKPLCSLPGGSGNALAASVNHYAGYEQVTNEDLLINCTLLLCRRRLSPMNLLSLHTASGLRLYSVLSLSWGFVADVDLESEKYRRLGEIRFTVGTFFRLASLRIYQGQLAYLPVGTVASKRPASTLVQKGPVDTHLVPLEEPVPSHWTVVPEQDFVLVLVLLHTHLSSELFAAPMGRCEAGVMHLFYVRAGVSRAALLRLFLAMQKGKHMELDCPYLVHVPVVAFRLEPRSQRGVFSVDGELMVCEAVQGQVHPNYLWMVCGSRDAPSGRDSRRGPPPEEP

In the case of `Oc1ccc(Nc2nc(-c3ccc(Cl)cc3)cs2)cc1`, the Ki at Sphingosine kinase 2 [1] is 8 µM.

With `CC(=O)N(C1=C(Cl)C(=O)c2ccccc2C1=O)C1CCCCC1`, the inhibitory constant (Ki) at Sphingosine kinase 1 [2] amounted to 0.3 µM.

Turning to `CCCCCCCCCCCCCC[C@@H]1OC[C@@H](N)[C@@H]1O`, the values for the half-inhibitory concentration (IC50) on Sphingosine kinase 1 [3] and on Sphingosine kinase 2 [4] were 5.3 µM and 1.6 µM, respectively.

For the molecule `CCCCCCCCCCCCCC[C@@H]1OC[C@H](N)[C@@H]1O`, the 50% inhibitory concentration (IC50) on Sphingosine kinase 2 [5] was found to be 6.6 µM; against Sphingosine kinase 1 [6] it was 4.6 µM.

As to `CCCCCCCCCCCCC/C=C/[C@H](O)[C@@H](CO)N(C)C`, at Sphingosine kinase 2 [1], the Ki is 12 µM.

`N[C@H]1CN[C@H](CCCCCCCCCCCOC2CCOCC2)[C@H]1O` yielded an IC50 against Sphingosine kinase 1 [7] of 0.8 µM.

Turning to `COc1ccc2[nH]c(=O)c(/C=C/C(=O)c3ccc(Nc4nccc(-c5ccc6ccccc6c5)n4)cc3)cc2c1`, the IC50 on Sphingosine kinase 1 [8] stood at 3.1 µM.

As for `CCCCCCCCCCCCC/C=C/C(O)C(CO)NC(=N)N` (centres undefined), the inhibitory constant (Ki) on Sphingosine kinase 1 [2] is 0.04 µM; at Sphingosine kinase 2 [1] it was 0.3 µM.

As for `Brc1cc2c(c3ccccc13)N1OC(C2)CC1CCc1ccccc1` (centres undefined), the half-maximal inhibitory concentration (IC50) at Sphingosine kinase 2 [9] is 71 µM; at Sphingosine kinase 1 [8], over 650 µM.

Regarding `CCCOCCCCCCCCCC[C@@H]1OC[C@@H](N)[C@@H]1O`, the IC50 against Sphingosine kinase 2 [10] is 3.2 µM; against Sphingosine kinase 1 [7], over 30 µM.

Regarding `CCCCCCCCOc1ccc2cc(-c3noc(C4[C@@H](O)CCN4C(=N)N)n3)ccc2c1` (single isomer, unassigned), the inhibition constant (Ki) came out at 20 µM at Sphingosine kinase 1 [11] and 1 µM at Sphingosine kinase 2 [12].

As for `CCCCCCCCCCCCCC[C@H]1OC[C@H](N)[C@@H]1O` [2-EPI JASPINE B], the results for the IC50 at Sphingosine kinase 2 [10] and against Sphingosine kinase 1 [7] were 24.8 µM and 4.3 µM, respectively.
